Data on 9 compounds can be found in patent US20240366813A1, “PEPTIDE-UREA DERIVATIVE, PHARMACEUTICAL COMPOSITION CONTAINING SAME AND APPLICATION THEREOF” (Bivision Pharmaceuticals, Inc., priority 0001, published 2024).

Values joined by “and” are separate entries in the source; they are usually repeats but may differ in a detail not shown here. Equal entries are not always repeated.

A word on the Kd: it is the free concentration of one partner at which half of the binding sites on the other are occupied at equilibrium, for simple one-to-one binding.

Data set [1] addresses PSMA protein (Homo sapiens (Human), UniProt Q04609). Put plainly: In vitro binding test of compound and PSMA protein (Biacore). The conditions noted are these: Biacore 8K, 15° C., 1:1 binding model, KD in M; for Kd: read-out: pkD (pKD=−Log KD, binding affinity to PSMA protein) (converted). As to the method: A Biacore 8K (Cytiva) instrument was used to determine the binding affinity of disclosed compounds to the PSMA protein (Sinobiological). The PSMA protein was captured on SA chips. Before immobilizing the disclosed compounds (flow path 1 and 2, flow rate 10 μL/min), the PSMA protein was immobilized on flow path 2 by using flow buffer (10 μg/ml, flow rate 5 μL/min, injection time 600 s), and 1M NaCl was injected three times consecutively into 50 mM NaOH to condition the sensor surface. After each disclosed compounds injection, isopropanol in 1M NaCl and 50 mM NaOH was used for additional washing (flow path 1, 2, flow rate 10 μL/min, injection time 60 s).
All compounds were dissolved in 100% DMSO and diluted to 10 mM, and then diluted in test buffer (PBS, pH 7.4, 1 mM TCEP ([…]), 0.05% P20, 2% dimethyl sulfoxide) at an appropriate highest concentration. Analytes were run using the following conditions: 15° C. analysis temperature, analysis steps=all set to LMW kinetics; cycle type=single cycle (90 s contact time, 1800 s separation time, 30 ul/min flow rate, channels 1, 2); channel detection=2-1). Data were evaluated using Biacore Insight evaluation software, and data were fit to a 1:1 binding model.
Biacore results are shown in Table 12: pKD=−Log KD, where KD is the binding affinity of the compounds to PSMA protein measured by Biacore. KD is expressed by KD (M)=Kd (1/s)/Ka (1/Ms).
Background: In SPR one partner is held on a chip, and binding of the other changes the refractive index at the surface.

In data set [2] the test system is 22rv1 xenograft tumor. Kind of data set: Pharmacodynamic study in 22rv1 mouse xenograft tumor model (effect example 11). The class given is in vivo, mice. The conditions noted are these: for TGITV (relative tumor inhibition rate): Day 19; for Tumor volume, Administration in groups Day 19: mean ± standard error.
Data set [3] relates to PSMA-positive cells LNCap. Kind of data set: Uptake of labeled compounds by PSMA-positive cells LNCap. In kind it is cell-based. The conditions noted are these: 37° C., 0.5 h. The procedure: LNCap cells (Shangcheng Beina Chuanglian Biotechnology Co., Ltd., Industrial Park, Chengguan Town, Shangcheng County, Xinyang City, Henan Province) were revived and passaged for expansion. After the cells were expanded to a sufficient amount, cells were seeded in a 24-well plate at a density of 1×10^4 cells/well. Uptake tests were performed when cells grew to 80%-90% confluence.
The above labeled compounds ^177Lu-E1, ^177Lu-E2, ^177Lu-E3, ^177Lu-E5, ^177Lu-E9, ^177Lu-E14 and ^177Lu-PSMA-617 were diluted with serum-free medium into 10000, 1000, 100, 10, 1, 0.1 and 0 nM. 1 mL of the diluted solution was added to a 24-well plate, and incubated at 37° C. for 0.5 h. The supernatant was discarded and the cells were washed 3 times with PBS. 250 μL of 1M NaOH solution was added to each well. The cells were pipetted until they were completely dissolved, and transferred to a scintillation vial. 250 μL of NaOH solution was added to each well again to wash the bottom of the well and transferred to a scintillation vial. 2 mL of scintillation fluid was added to each scintillation vial and shaken well. A liquid scintillation counter was used to detect radioactive counts in each vial.

Data set [4] can be described thus: In vivo metabolism test of 177Lu-labeled complex in SD rats (plasma radioactive counts). The settings on record: for plasma radioactive counts: individual rat, 100 μL plasma; for plasma radioactive counts, MEAN: mean of rats. As to the method:
Eighteen SD rats (Hangzhou Ziyuan Experimental Animal Technology Co., Ltd.), male, weighing 180-200 g, were randomly divided into 6 groups, 3 rats in each group. […] of the labeled precursor compound was injected into the tail vein of each mouse. 250 μL of orbital blood was collected into anticoagulant tubes at 5 min, 0.5 h, 1 h, 2 h, 4 h, 8 h and 24 h after administration. Blood was centrifuged at 3000 rpm for 10 min, and 100 μL of plasma was taken into scintillation vials. 2 mL of scintillation fluid was added to each scintillation vial and shaken well. A liquid scintillation counter was used to detect radioactive counts in each vial.

The subject of data set [5] is LNCaP PSMA-positive tumors. Put plainly: SPECT imaging in mice carrying LNCaP PSMA-positive tumors. The class given is in vivo. The conditions noted are these: 100 μCi tail vein. The procedure: 100 μCi of ^177Lu-labeled ^177Lu-E3 and ^177Lu-PSMA-617 were injected into mice carrying LNCaP PSMA-positive tumors (Jiangsu Huajing Molecular Imaging and Drug Research Institute Co., Ltd.) through the tail vein respectively. Mice were anesthetized with 2% isoflurane/98% oxygen for SPECT image contrast study.

[6] abbreviates: 300 μCi of ^177Lu-labeled test sample.
The mark [7] stands for this setting: 600 μCi of ^177Lu-labeled test sample.
The mark [8] stands for this setting: 5 min after tail vein injection.
Setting [9] is: 0.5 h after tail vein injection.

Chain of PSMA protein (Q04609 whole entry): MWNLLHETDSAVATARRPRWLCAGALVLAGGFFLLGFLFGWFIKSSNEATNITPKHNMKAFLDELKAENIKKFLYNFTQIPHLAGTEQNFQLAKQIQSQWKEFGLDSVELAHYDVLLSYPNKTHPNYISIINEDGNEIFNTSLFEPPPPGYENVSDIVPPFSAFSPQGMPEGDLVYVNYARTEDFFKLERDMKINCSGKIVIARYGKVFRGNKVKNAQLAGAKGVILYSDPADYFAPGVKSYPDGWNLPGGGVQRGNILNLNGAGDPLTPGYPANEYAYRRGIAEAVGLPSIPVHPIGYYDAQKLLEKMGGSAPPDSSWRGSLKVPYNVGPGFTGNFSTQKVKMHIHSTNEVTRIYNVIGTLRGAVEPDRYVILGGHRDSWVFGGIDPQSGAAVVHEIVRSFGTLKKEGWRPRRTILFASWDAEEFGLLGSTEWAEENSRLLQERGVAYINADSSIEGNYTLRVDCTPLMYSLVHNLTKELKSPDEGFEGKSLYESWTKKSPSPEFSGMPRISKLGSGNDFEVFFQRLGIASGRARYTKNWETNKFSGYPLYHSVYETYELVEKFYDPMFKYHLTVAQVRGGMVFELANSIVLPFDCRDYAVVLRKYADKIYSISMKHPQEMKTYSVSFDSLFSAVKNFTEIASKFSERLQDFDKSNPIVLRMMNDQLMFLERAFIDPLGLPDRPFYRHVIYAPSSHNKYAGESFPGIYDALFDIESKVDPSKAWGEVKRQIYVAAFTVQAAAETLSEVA

As to `O=C(O)CC[C@H](NC(=O)NC(CCCCNC(=O)[C@H](Cc1ccc2ccccc2c1)NC(=O)C1CCC2(CC1)CN(C(=O)CN1CCN(CC(=O)O)CCN(CC(=O)O)CCN(CC(=O)O)CC1)C2)C(=O)O)C(=O)O` (stereo partly shown) [Compound E2], in data set [1], the Kd was 0.229 nM.
On the same count and under the same terms, under `O=C(O)CC[C@H](NC(=O)N[C@@H](CCCCNC(=O)[C@H](Cc1ccc2ccccc2c1)NC(=O)c1ccc2c(c1)CN(C(=O)CN1CCN(CC(=O)O)CCN(CC(=O)O)CCN(CC(=O)O)CC1)CC2)C(=O)O)C(=O)O` [Compound E4] stands 0.269 nM.
`O=C(O)CC[C@H](NC(=O)N[C@@H](CCCCNC(=O)[C@H](Cc1ccc2ccccc2c1)NC(=O)C1C2CN(C(=O)CN3CCN(CC(=O)O)CCN(CC(=O)O)CCN(CC(=O)O)CC3)CC21)C(=O)O)C(=O)O` (stereo partly shown) [Compound E8]: the “pkD (pKD=−Log KD, binding affinity to PSMA protein)” value in data set [1] is reported as 9.49.
For the compound `O=C(O)CC[C@H](NC(=O)NC(CCCCNC(=O)[C@H](Cc1ccc2ccccc2c1)NC(=O)C1CCC2(CC1)CCN(C(=O)CN1CCN(CC(=O)O)CCN(CC(=O)O)CCN(CC(=O)O)CC1)CC2)C(=O)O)C(=O)O` (stereo partly shown) [Compound E9], the Kd in data set [1] is 0.282 nM.
Turning to `O=C(O)CC[C@H](NC(=O)N[C@@H](CCCCNC(=O)[C@H](Cc1ccc2ccccc2c1)NC(=O)c1ccc2cc(NC(=O)CN3CCN(CC(=O)O)CCN(CC(=O)O)CCN(CC(=O)O)CC3)ccc2c1)C(=O)O)C(=O)O` [Compound E21], the “pkD (pKD=−Log KD, binding affinity to PSMA protein)” value in data set [1] came to 9.82.
`O=C(O)CC[C@H](NC(=O)N[C@@H](CCCCNC(=O)[C@H](Cc1ccc2ccccc2c1)NC(=O)C1CC2(C1)CN(C(=O)CN1CCN(CC(=O)O)CCN(CC(=O)O)CCN(CC(=O)O)CC1)C2)C(=O)O)C(=O)O` [Compound E22]: the “pkD (pKD=−Log KD, binding affinity to PSMA protein)” value in data set [1] came to 10.00.
The same measure, in the same setting: under `O=C(O)CC[C@H](NC(=O)N[C@@H](CCCCNC(=O)[C@H](Cc1ccc2ccccc2c1)NC(=O)c1cnc2cc(NC(=O)CN3CCN(CC(=O)O)CCN(CC(=O)O)CCN(CC(=O)O)CC3)ccc2c1)C(=O)O)C(=O)O` [Compound E25] stands 10.15.
On to `O=C(O)CC[C@H](NC(=O)N[C@@H](CCCCNC(=O)[C@H](Cc1ccc2ccccc2c1)NC(=O)[C@H]1CC[C@H](CNC(=O)CN2CCN(CC(=O)O)CCN(CC(=O)O)CCN(CC(=O)O)CC2)CC1)C(=O)O)C(=O)O` [PSMA-617, reference compound], for which the Kd in data set [1] was 0.00204 nM. In addition, in data set [2] (setting [6]), the “TGITV (relative tumor inhibition rate)” value came out at 15.49% and the “Tumor volume, Administration in groups Day 19” value is 1,480.09 ± 446.83 mm^3. Moreover, in data set [2] (setting [7]), the “TGITV (relative tumor inhibition rate)” value came out at 21.18% and the “Tumor volume, Administration in groups Day 19” value is 1,389.81 ± 598.96 mm^3.
`O=C([O-])CN1CCN(CC(=O)[O-])CCN(CC(=O)NCC2CCC(C(=O)N[C@@H](Cc3ccc4ccccc4c3)C(=O)NCCCC[C@H](NC(=O)N[C@@H](CCC(=O)O)C(=O)O)C(=O)O)CC2)CCN(CC(=O)[O-])CC1.[177Lu+3]` (stereo partly shown) [^177Lu-PSMA-617, reference compound]: the “uptake by LNCap cells” value in data set [3] (0.1 nM) is reported as 49 cpm; in data set [3] (1 nM), 67 cpm; in data set [3] (10 nM), 225 cpm; in data set [3] (100 nM), 389 cpm; in data set [3] (1000 nM), 599 cpm; in data set [3] (10000 nM) it was 1625 cpm. In addition, the plasma radioactive counts was 24449 cpm and 23276 cpm and 22010 cpm in data set [4] (setting [8]); 9783 cpm and 13738 cpm and 14589 cpm in data set [4] (setting [9]); 3865 cpm and 6988 cpm and 7736 cpm in data set [4] (1 h after tail vein injection); 679 cpm and 1346 cpm and 1544 cpm in data set [4] (2 h after tail vein injection); 207 cpm and 219 cpm and 225 cpm in data set [4] (4 h after tail vein injection); 188 cpm and 187 cpm and 170 cpm in data set [4] (8 h after tail vein injection). The plasma radioactive counts in data set [4] (24 h after tail vein injection) was 173 cpm and 176 cpm and 178 cpm. Also, the “plasma radioactive counts, MEAN” value in data set [4] (setting [8]) amounted to 23245 cpm; in data set [4] (setting [9]) it was 12703 cpm; in data set [4] (1 h after tail vein injection) it was 6196 cpm; in data set [4] (2 h after tail vein injection), 1190 cpm; in data set [4] (4 h after tail vein injection) it was 217 cpm; in data set [4] (8 h after tail vein injection), 182 cpm. Also, the “plasma radioactive counts, MEAN” value in data set [4] (24 h after tail vein injection) is recorded as 176 cpm. Moreover, the “Heart, Averaged” value in data set [5] (1 h) is given as 1.59 % ID/cc; in data set [5] (4 h) it was 1.47 % ID/cc; in data set [5] (8 h) it was 0.53 % ID/cc; in data set [5] (1 d), 1.45 % ID/cc; in data set [5] (3 d), 0.46 % ID/cc. For the same compound, the “Kidney, Averaged” value in data set [5] (1 h) is 58.17 % ID/cc; in data set [5] (4 h) it was 8.37 % ID/cc; in data set [5] (8 h), 4.35 % ID/cc; in data set [5] (1 d) it was 1.16 % ID/cc; in data set [5] (3 d), 1.55 % ID/cc. Further, the “Liver, Averaged” value stood at 1.61 % ID/cc in data set [5] (1 h); 1.27 % ID/cc in data set [5] (4 h); 1.04 % ID/cc in data set [5] (8 h); 1.43 % ID/cc in data set [5] (1 d); 0.96 % ID/cc in data set [5] (3 d). The “Lung, Averaged” value stood at 3.30 % ID/cc in data set [5] (1 h); 1.54 % ID/cc in data set [5] (4 h); 0.86 % ID/cc in data set [5] (8 h); 0.85 % ID/cc in data set [5] (1 d); 3.74 % ID/cc in data set [5] (3 d). The “Tumor, Averaged” value in data set [5] (1 h) was determined as 19.42 % ID/cc; in data set [5] (4 h) it was 10.68 % ID/cc; in data set [5] (8 h), 9.4 % ID/cc; in data set [5] (1 d) it was 2.19 % ID/cc; in data set [5] (3 d), 4.76 % ID/cc. Moreover, the “tumor growth inhibition rate” value in data set [2] (over the two dose groups) is 15-21%.
